Data published in article PMC7347136 (PLoS ONE, 2020).
Values joined by “and” are separate entries in the source; they are usually repeats but may differ in a detail not shown here. Equal entries are not always repeated. Where two headings read alike, the source gives them in different places.

Columns and labels:
CDK2/cyclin A = target: T1, CDK2/cyclin A (Homo sapiens, UniProt P24941); experiment: Carna IC50 determination; assay type: biochemical; conditions: around Km [ATP]
T1 construct: purchased Carna Biosciences
Description: (§1) IC50 values were determined from a 10-point concentration curve using ATP concentrations approximating Km values. […] The percentage inhibition of each test solution was calculated, which allowed the IC50 value to be determined from concentration versus percentage inhibition curves by fitting to a four parameter logistic curve.

CDK3/cyclin E1 = target: T2, CDK3/cyclin E1 (Homo sapiens, UniProt Q00526); experiment: Carna IC50 determination; assay type: biochemical; conditions: around Km [ATP]
T2 construct: purchased Carna Biosciences
Description: as §1

CDK4/cyclin D3 [1] = target: T3, CDK4/cyclin D3 (Homo sapiens, UniProt P11802); experiment: Carna IC50 determination; assay type: biochemical; conditions: around Km [ATP]
T3 construct: made in house
Description: as §1

CDK5/p25 = target: T4, CDK5/p25 (Homo sapiens, UniProt Q00535); experiment: Carna IC50 determination; assay type: biochemical; conditions: around Km [ATP]
T4 construct: purchased Carna Biosciences
Description: as §1

CLK1 = target: T5, CLK1 (Homo sapiens, UniProt P49759); experiment: Carna IC50 determination; assay type: biochemical; conditions: around Km [ATP]
T5 construct: purchased Carna Biosciences
Description: as §1

CLK2 = target: T6, CLK2 (Homo sapiens, UniProt P49760); experiment: Carna IC50 determination; assay type: biochemical; conditions: around Km [ATP]
T6 construct: purchased Carna Biosciences
Description: as §1

CDK2/cyclin E = target: T7, CDK2/cyclin E (Homo sapiens, UniProt P24941); experiment: Kinase assay with recombinant CDK/cyclins (Cyclacel); assay type: biochemical
T7 construct: made in house
Description: (§2) Kinase assays for CDK2, CDK4, CDK7 and CDK9 were carried out as described previously using recombinant CDK/cyclins generated at Cyclacel Ltd, Dundee, UK [29, 34, 35].

CDK4/cyclin D3 [2] = target: T3, CDK4/cyclin D3; experiment: as above; assay type: biochemical
Description: as §2

CDK7/cyclin H1/MAT1 = target: T8, CDK7/cyclin H1/MAT1 (Homo sapiens, UniProt P50613); experiment: as above; assay type: biochemical
T8 construct: purchased Carna Biosciences
Description: as §2

184A1 = experiment: Resazurin reduction cell viability assay; assay type: cell-based, human
Description: (§3) Solid tumor cell lines were seeded in 100 μl medium into 96-well plates at an appropriate cell number determined by a cell dilution assay (Cal51–2000 cells/well; Colo205, MCF10A and 184A1–3000 cells/well and MDA-MB-468, HCC1954–4000 cells/well). AML suspension cells were seeded in 96-well plates at approximately 3000 cells per well. Cells were incubated overnight at 37°C, 5% CO2. The following day, 100 μl fresh medium containing increasing concentrations of appropriate compound was added and the cells were incubated for up to 72 h at 37°C, 5% CO2. For pulse treatment of solid (adherent) tumor cell lines, medium was aspirated and replaced with fresh drug-free medium. For pulse treatment of suspension lines, plates were centrifuged at 478 xg for 5 min at the end of the incubation period with compound, medium containing compound was carefully aspirated and replaced with fresh compound-free medium. A total of 72 h after the start of treatment, 20 μl of a 10X stock of resazurin sodium salt (Sigma-Aldrich, Dorset, UK) prepared in medium was added to the cells and incubated for up to 3 h. […] was measured on the Wallac Victor plate reader (Cambridge, UK) at 544–595 nm. IC50/70/90 calculations were determined in XLFit.

A2780 = experiment: Resazurin reduction cell viability assay; assay type: cell-based, human; conditions: 6 h pulse
Description: as §3

A549 = experiment: Resazurin reduction cell viability assay; assay type: cell-based, human
Description: as §3

Colo205 = experiment: Resazurin reduction cell viability assay; assay type: cell-based, human; conditions: Homo sapiens, COLO 205, 72 h, 72 h continuous treatment; read-out: Colo205 IC50 ± SD
Description: as §3

HEL = experiment: Resazurin reduction cell viability assay; assay type: cell-based, human
Description: as §3

KG-1 = experiment: Resazurin reduction cell viability assay; assay type: cell-based, human
Description: as §3

MCF10A = experiment: Resazurin reduction cell viability assay; assay type: cell-based, human
Description: as §3

MDA-MB-231 = experiment: Resazurin reduction cell viability assay; assay type: cell-based, human
Description: as §3

MOLM-13 = experiment: Resazurin reduction cell viability assay; assay type: cell-based, human
Description: as §3

MV4-11 = experiment: Resazurin reduction cell viability assay; assay type: cell-based, human
Description: as §3

OCI-AML2 = experiment: Resazurin reduction cell viability assay; assay type: cell-based, human
Description: as §3

OCI-AML5 = experiment: Resazurin reduction cell viability assay; assay type: cell-based, human
Description: as §3

PC3 = experiment: Resazurin reduction cell viability assay; assay type: cell-based, human
Description: as §3

PL21 = experiment: Resazurin reduction cell viability assay; assay type: cell-based, human
Description: as §3

T3 sequence (P11802 whole entry): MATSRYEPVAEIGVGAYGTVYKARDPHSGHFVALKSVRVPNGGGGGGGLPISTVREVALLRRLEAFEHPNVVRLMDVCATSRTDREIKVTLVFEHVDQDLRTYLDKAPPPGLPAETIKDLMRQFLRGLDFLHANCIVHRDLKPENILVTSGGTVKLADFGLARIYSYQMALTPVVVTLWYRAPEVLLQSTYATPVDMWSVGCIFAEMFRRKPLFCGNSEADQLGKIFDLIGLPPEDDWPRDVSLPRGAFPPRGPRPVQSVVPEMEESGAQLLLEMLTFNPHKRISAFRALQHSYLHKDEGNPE
T3 sequence (P30281 whole entry partner): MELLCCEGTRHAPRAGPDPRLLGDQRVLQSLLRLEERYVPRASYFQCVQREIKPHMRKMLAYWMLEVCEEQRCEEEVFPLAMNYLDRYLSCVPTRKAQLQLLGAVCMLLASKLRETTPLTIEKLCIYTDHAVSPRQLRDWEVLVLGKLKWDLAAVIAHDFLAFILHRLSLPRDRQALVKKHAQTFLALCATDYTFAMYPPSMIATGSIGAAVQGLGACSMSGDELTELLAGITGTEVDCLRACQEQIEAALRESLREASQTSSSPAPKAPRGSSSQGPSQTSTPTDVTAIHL
T8 sequence (P50613 whole entry): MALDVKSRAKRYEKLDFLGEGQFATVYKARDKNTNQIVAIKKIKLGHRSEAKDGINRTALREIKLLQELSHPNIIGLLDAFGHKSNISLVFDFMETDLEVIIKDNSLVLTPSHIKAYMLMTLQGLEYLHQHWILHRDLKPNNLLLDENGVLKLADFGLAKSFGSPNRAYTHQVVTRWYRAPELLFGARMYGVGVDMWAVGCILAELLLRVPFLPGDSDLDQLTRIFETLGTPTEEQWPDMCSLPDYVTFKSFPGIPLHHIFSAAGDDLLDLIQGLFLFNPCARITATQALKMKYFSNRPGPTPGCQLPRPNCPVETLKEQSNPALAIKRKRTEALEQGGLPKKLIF
T8 sequence (P51946 whole entry partner): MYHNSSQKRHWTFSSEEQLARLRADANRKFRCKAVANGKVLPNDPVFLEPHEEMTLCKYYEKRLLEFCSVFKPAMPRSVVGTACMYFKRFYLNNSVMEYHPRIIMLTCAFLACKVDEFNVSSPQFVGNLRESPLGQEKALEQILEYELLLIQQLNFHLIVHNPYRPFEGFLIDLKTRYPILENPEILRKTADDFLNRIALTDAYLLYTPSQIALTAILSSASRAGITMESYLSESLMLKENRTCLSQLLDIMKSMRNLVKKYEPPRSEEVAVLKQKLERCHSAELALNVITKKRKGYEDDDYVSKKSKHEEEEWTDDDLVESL
T8 sequence (P51948 whole entry partner): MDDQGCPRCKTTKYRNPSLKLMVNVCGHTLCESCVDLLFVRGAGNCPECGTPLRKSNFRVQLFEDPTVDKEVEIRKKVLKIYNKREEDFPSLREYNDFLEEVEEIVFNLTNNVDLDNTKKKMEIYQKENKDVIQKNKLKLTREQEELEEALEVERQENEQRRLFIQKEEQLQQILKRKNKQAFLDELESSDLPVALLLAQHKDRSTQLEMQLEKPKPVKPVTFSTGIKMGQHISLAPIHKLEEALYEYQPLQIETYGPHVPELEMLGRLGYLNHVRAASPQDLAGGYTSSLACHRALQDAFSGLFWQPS
T5 sequence (P49759 whole entry): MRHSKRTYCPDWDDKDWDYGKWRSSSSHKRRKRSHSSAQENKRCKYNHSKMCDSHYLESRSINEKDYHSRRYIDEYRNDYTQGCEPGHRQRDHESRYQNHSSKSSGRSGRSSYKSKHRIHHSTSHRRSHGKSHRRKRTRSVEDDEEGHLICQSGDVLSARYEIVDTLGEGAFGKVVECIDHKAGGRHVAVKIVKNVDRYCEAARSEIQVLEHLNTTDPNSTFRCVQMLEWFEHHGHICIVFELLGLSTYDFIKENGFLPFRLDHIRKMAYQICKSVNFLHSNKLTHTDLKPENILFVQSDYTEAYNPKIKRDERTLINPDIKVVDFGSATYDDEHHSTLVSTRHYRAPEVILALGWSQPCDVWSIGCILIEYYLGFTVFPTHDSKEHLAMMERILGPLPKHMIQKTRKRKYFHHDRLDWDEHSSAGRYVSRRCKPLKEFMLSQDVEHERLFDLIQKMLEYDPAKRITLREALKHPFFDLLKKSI
T6 sequence (P49760 whole entry): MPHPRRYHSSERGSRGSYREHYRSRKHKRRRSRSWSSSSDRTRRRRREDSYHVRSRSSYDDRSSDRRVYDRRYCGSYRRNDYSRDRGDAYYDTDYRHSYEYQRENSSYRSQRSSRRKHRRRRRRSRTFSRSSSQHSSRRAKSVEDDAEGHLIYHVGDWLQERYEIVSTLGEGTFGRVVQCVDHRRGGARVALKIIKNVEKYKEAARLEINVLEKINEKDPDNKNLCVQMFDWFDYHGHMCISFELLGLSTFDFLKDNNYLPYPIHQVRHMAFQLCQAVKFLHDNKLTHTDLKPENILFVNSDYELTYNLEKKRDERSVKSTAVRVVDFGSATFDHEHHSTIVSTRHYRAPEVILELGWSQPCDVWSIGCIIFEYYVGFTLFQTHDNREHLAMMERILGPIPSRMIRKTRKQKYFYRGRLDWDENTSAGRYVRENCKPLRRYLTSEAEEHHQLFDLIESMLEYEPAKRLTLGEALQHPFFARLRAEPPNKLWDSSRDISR
T4 sequence (Q00535 whole entry): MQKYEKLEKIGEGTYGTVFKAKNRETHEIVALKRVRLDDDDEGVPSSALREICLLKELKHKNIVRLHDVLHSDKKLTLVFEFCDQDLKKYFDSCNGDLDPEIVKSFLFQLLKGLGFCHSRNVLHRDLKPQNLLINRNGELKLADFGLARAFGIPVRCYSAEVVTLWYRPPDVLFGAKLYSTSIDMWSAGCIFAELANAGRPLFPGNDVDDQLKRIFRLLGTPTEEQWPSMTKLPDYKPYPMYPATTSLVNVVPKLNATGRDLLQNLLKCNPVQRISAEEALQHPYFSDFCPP
T4 sequence (Q15078 99-307 partner limits assumed): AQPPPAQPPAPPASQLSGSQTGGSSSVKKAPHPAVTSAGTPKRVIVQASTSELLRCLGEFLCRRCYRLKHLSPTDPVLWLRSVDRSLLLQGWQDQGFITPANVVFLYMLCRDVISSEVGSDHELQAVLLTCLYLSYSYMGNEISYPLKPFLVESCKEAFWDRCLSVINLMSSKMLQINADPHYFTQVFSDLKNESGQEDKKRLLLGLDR

SMILES: CC[C@H](Nc1nc(NCc2cnc(C)cc2C)c2ncn(C(C)C)c2n1)[C@@H](C)O [Fadraciclib, 2-pentanol, 3-[[6-[[(4,6-dimethyl-3-pyridinyl)methyl]amino]-9-(1-methylethyl)-9Hpurin-2-yl]amino]-, (2R,3S)]
- IC50 (CDK2/cyclin A): 4.5 ± 0.4 nM
- IC50 (CDK3/cyclin E1): 29 nM and 28.9 nM
- IC50 (CDK4/cyclin D3 [1]): 232 ± 27 nM
- IC50 (CDK5/p25): 20.5 ± 1 nM
- IC50 (CLK1): 549 ± 81 nM
- IC50 (CLK2): 252 ± 8 nM
- IC50 (CDK2/cyclin E): 20 ± 1 nM
- IC50 (CDK4/cyclin D3 [2]): > 10000 nM
- IC50 (CDK7/cyclin H1/MAT1): 730 ± 160 nM
- IC50 (184A1; Homo sapiens, 184A1, 72 h, 184A1, continuous 72 h, read-out: continuous IC50 ± SD): 250 ± 10 nM
- IC50 (184A1; Homo sapiens, 184A1, read-out: 8 h pulse IC50 ± SD, 184A1 (non-malignant), 8 h pulse, read at 72 h): 3900 nM
- IC50 (184A1; read-out: 8 h pulse IC50 ± SD, 184A1 (non-malignant), 8 h pulse, read at 72 h): 3870 ± 2100 nM
- IC50, short pulse (A2780): submicromolar
- sensitivity, 6 h pulse versus continuous 72 h (A549): sensitive to fadraciclib only after more prolonged treatment
- IC50 (Colo205): 310 nM
- IC50 (HEL; Homo sapiens, 72 h, 72 h continuous, read-out: 72 h continuous IC50 ± SD): 530 ± 200 nM
- IC50 (HEL; Homo sapiens, read-out: 6 h pulse IC50 ± SD, HEL, 6 h pulse then 66 h release): 5120 nM
- IC50 (HEL; read-out: 6 h pulse IC50 ± SD, 6 h pulse then 66 h release): 5110 ± 880 nM
- IC50 (KG-1; Homo sapiens, KG-1, 72 h, KG-1, 72 h continuous, read-out: 72 h continuous IC50 ± SD): 350 ± 30 nM
- IC50 (KG-1; Homo sapiens, KG-1, read-out: 6 h pulse IC50 ± SD, KG-1, 6 h pulse then 66 h release): 500 nM
- IC90 (KG-1; Homo sapiens, KG-1, 6 h pulse then 66 h release): 3700 nM
- IC50 (KG-1; read-out: 6 h pulse IC50 ± SD, KG-1, 6 h pulse then 66 h release): 470 ± 120 nM
- IC50 (MCF10A; Homo sapiens, MCF-10A, 72 h, MCF10A, continuous 72 h, read-out: continuous IC50 ± SD): 400 ± 30 nM
- IC50 (MCF10A; Homo sapiens, MCF-10A, read-out: 8 h pulse IC50 ± SD, MCF10A (non-malignant), 8 h pulse, read at 72 h): 3900 nM
- IC50 (MCF10A; read-out: 8 h pulse IC50 ± SD, MCF10A (non-malignant), 8 h pulse, read at 72 h): 3890 ± 1040 nM
- sensitivity, 6 h pulse versus continuous 72 h (MDA-MB-231): sensitive to fadraciclib only after more prolonged treatment
- IC50 (MOLM-13; Homo sapiens, MOLM-13, 72 h, MOLM-13, 72 h continuous, read-out: 72 h continuous IC50 ± SD): 240 ± 50 nM
- IC50 (MOLM-13; Homo sapiens, MOLM-13, read-out: 6 h pulse IC50 ± SD, MOLM-13, 6 h pulse then 66 h release): 260 nM
- IC90 (MOLM-13; Homo sapiens, MOLM-13, 6 h pulse then 66 h release): 400 nM
- IC50 (MOLM-13; read-out: 6 h pulse IC50 ± SD, MOLM-13, 6 h pulse then 66 h release): 250 ± 50 nM
- IC50 (MV4-11; Homo sapiens, MV4-11, 72 h, MV4-11, 72 h continuous, read-out: 72 h continuous IC50 ± SD): 260 ± 80 nM
- IC50 (MV4-11; Homo sapiens, MV4-11, read-out: 6 h pulse IC50 ± SD, MV4-11, 6 h pulse then 66 h release): 500 nM
- IC90 (MV4-11; Homo sapiens, MV4-11, 6 h pulse then 66 h release): 920 nM
- IC50 (MV4-11; read-out: 6 h pulse IC50 ± SD, MV4-11, 6 h pulse then 66 h release): 510 ± 40 nM
- IC50 (OCI-AML2; Homo sapiens, OCI-AML2, 72 h, OCI-AML2, 72 h continuous, read-out: 72 h continuous IC50 ± SD): 220 ± 30 nM
- IC50 (OCI-AML2; Homo sapiens, OCI-AML2, read-out: 6 h pulse IC50 ± SD, OCI-AML2, 6 h pulse then 66 h release): 530 nM
- IC90 (OCI-AML2; Homo sapiens, OCI-AML2, 6 h pulse then 66 h release): 1800 nM
- IC50 (OCI-AML2; read-out: 6 h pulse IC50 ± SD, OCI-AML2, 6 h pulse then 66 h release): 550 ± 70 nM
- IC50 (OCI-AML5; Homo sapiens, OCI-AML-5, 72 h, OCI-AML5, 72 h continuous, read-out: 72 h continuous IC50 ± SD): 310 ± 130 nM
- IC90 (OCI-AML5; Homo sapiens, OCI-AML-5, OCI-AML5, 6 h pulse then 66 h release): 18500 nM
- IC50 (OCI-AML5; Homo sapiens, OCI-AML-5, read-out: 6 h pulse IC50 ± SD, OCI-AML5, 6 h pulse then 66 h release): 1440 nM
- IC50 (OCI-AML5; read-out: 6 h pulse IC50 ± SD, OCI-AML5, 6 h pulse then 66 h release): 1450 ± 50 nM
- sensitivity, 6 h pulse versus continuous 72 h (PC3): sensitive to fadraciclib only after more prolonged treatment
- IC50 (PL21; Homo sapiens, PL-21, 72 h, PL21, 72 h continuous, read-out: 72 h continuous IC50 ± SD): 340 ± 90 nM
- IC90 (PL21; Homo sapiens, PL-21, PL21, 6 h pulse then 66 h release): 9920 nM
- IC50 (PL21; Homo sapiens, PL-21, read-out: 6 h pulse IC50 ± SD, PL21, 6 h pulse then 66 h release): 2550 nM
- IC50 (PL21; read-out: 6 h pulse IC50 ± SD, PL21, 6 h pulse then 66 h release): 2540 ± 2710 nM
